Experimental data taken from ChEMBL document CHEMBL1201862, “PubChem BioAssay data set” (2004).
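Exposure lasted 48 hours, with cells grown in 96-well plates and compounds tested at five concentrations. The concentration for 50% growth inhibition is given as GI50.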 The source made the active and inactive calls. Cut-off read from the data, not from the text of the source: active = GI50 up to about 1.1 µM and inactive = higher.

Key:
Assay in all cases: inhibition of tumour cell growth, NCI panel, 48 h
786-0 = test system: 786-0
EKVX = test system: EKVX
HCT-15 = test system: HCT-15
HT-29 = test system: HT-29
LOX IMVI = test system: LOX IMVI
NCI-H226 = test system: NCI-H226
NCI-H23 = test system: NCI-H23
NCI-H522 = test system: NCI-H522
OVCAR-4 = test system: OVCAR-4
OVCAR-8 = test system: OVCAR-8
RXF 393 = test system: RXF 393
SF-295 = test system: SF-295
SK-MEL-28 = test system: SK-MEL-28
SK-MEL-5 = test system: SK-MEL-5
SN12C = test system: SN12C
SNB-75 = test system: SNB-75
SR = test system: SR
UACC-257 = test system: UACC-257
MDA-MB-231 = test system: MDA-MB-231

SMILES | GI50 (786-0) | GI50 (EKVX) | GI50 (HCT-15) | GI50 (HT-29) | GI50 (LOX IMVI) | GI50 (NCI-H226) | GI50 (NCI-H23) | GI50 (NCI-H522) | GI50 (OVCAR-4) | GI50 (OVCAR-8) | GI50 (RXF 393) | GI50 (SF-295) | GI50 (SK-MEL-28) | GI50 (SK-MEL-5) | GI50 (SN12C) | GI50 (SNB-75) | GI50 (SR) | GI50 (UACC-257) | GI50 (MDA-MB-231)
CC(=O)O[C@]1(C)OC(=O)[C@@H](CC(C)C)N1[N+](=O)[O-] | > 100 µM (inactive) | > 100 µM (inactive) | > 100 µM | > 100 µM (inactive) | > 100 µM (inactive) | > 100 µM (inactive) | > 100 µM (inactive) | > 100 µM (inactive) | > 100 µM (inactive) | > 100 µM (inactive) | 60.7 µM (inactive) | > 100 µM (inactive) | > 100 µM (inactive) | > 100 µM (inactive) | > 100 µM (inactive) | > 100 µM (inactive) | > 100 µM (inactive) | > 100 µM (inactive) | 
CC1(C)OC(=O)C(=C2CC(c3ccccc3)c3ccccc32)C(=O)O1 (stereo not given) | > 100 µM (inactive) | > 100 µM (inactive) | > 100 µM | > 100 µM (inactive) | > 100 µM (inactive) | > 100 µM (inactive) | > 100 µM (inactive) | > 100 µM (inactive) | > 100 µM (inactive) | > 100 µM (inactive) | > 100 µM (inactive) | > 100 µM (inactive) | > 100 µM (inactive) | > 100 µM (inactive) | > 100 µM (inactive) | > 100 µM (inactive) | > 100 µM (inactive) | > 100 µM (inactive) | 
O=C(Nc1ccccc1)Nn1c(-c2cccs2)nc2ccc(I)cc2c1=O | 61.7 µM (inactive) | 20.9 µM (inactive) | 31.5 µM | 25.9 µM (inactive) | 19.2 µM (inactive) | 28.8 µM (inactive) | 27.3 µM (inactive) | 14.3 µM (inactive) | 16.9 µM (inactive) | 33.3 µM (inactive) | 30.4 µM (inactive) | 42.6 µM (inactive) | 20.5 µM (inactive) | 17.1 µM (inactive) | 34.8 µM (inactive) | 2.74 µM (inactive) | 16.8 µM (inactive) | 17.2 µM (inactive) | 
[O-][S+]1Nc2cccc(C(F)(F)F)c2S1 (stereo not given) | 42.1 µM (inactive) | 38.8 µM (inactive) | 18.6 µM | 35.7 µM (inactive) | 21.1 µM (inactive) | 73.3 µM (inactive) | 41.8 µM (inactive) | 28.1 µM (inactive) | 46.7 µM (inactive) | 54.8 µM (inactive) | 22.5 µM (inactive) | 45.4 µM (inactive) | > 100 µM (inactive) | 42 µM (inactive) | 35.6 µM (inactive) | 29.6 µM (inactive) | 25.5 µM (inactive) | 32.1 µM (inactive) | 
Cc1ccccc1NC(=O)C(=O)Cc1nc2ccccc2s1 | > 100 µM (inactive) |  | > 100 µM | > 100 µM (inactive) | > 100 µM (inactive) | > 100 µM (inactive) | > 100 µM (inactive) | > 100 µM (inactive) | > 100 µM (inactive) | > 100 µM (inactive) | > 100 µM (inactive) | > 100 µM (inactive) | > 100 µM (inactive) | > 100 µM (inactive) | > 100 µM (inactive) | > 100 µM (inactive) | > 100 µM (inactive) | > 100 µM (inactive) | 
CC(=O)N1N=C(c2ccccc2Nc2ccccc2C2=NN(C(C)=O)C(c3ccccc3)O2)OC1c1ccccc1 (stereo not given) | > 100 µM (inactive) | 45.4 µM (inactive) | 44.8 µM | 25.5 µM (inactive) | 81.8 µM (inactive) | > 100 µM (inactive) | 60.7 µM (inactive) | 36.1 µM (inactive) | 29.8 µM (inactive) | 71.6 µM (inactive) | 46.8 µM (inactive) | 32.8 µM (inactive) | > 100 µM (inactive) | 51.2 µM (inactive) | > 100 µM (inactive) |  | > 100 µM (inactive) |  | > 100 µM (inactive)
COc1ccc(C2S/C(=C\c3cccc([N+](=O)[O-])c3)C(=O)N2NC(=O)Cc2ccccc2)cc1 (stereo not given) | > 100 µM (inactive) |  | > 100 µM | > 100 µM (inactive) | > 100 µM (inactive) | > 100 µM (inactive) | > 100 µM (inactive) | > 100 µM (inactive) | > 100 µM (inactive) | > 100 µM (inactive) | > 100 µM (inactive) | > 100 µM (inactive) | > 100 µM (inactive) | > 100 µM (inactive) | > 100 µM (inactive) | > 100 µM (inactive) | > 100 µM (inactive) | > 100 µM (inactive) | 
C[C@@H]1CC(=O)C2CCCC1C2=O (stereo not given in full) | > 100 µM (inactive) | > 100 µM (inactive) | > 100 µM | > 100 µM (inactive) | > 100 µM (inactive) | > 100 µM (inactive) |  | > 100 µM (inactive) | > 100 µM (inactive) | > 100 µM (inactive) | > 100 µM (inactive) | > 100 µM (inactive) | > 100 µM (inactive) | > 100 µM (inactive) | > 100 µM (inactive) | > 100 µM (inactive) | > 100 µM (inactive) | > 100 µM (inactive) | 
COc1cc2cc(OC)c3cc4c(cc3c2c(OC)c1OC)OCO4 | 27.9 µM (inactive) | 50.6 µM (inactive) | 12.8 µM | 10.9 µM (inactive) | 15.5 µM (inactive) | > 100 µM (inactive) | 39.8 µM (inactive) | 18 µM (inactive) | 39.4 µM (inactive) | > 59.4 µM (inactive) | 42.9 µM (inactive) | 28.1 µM (inactive) | > 39.6 µM (inactive) | 23.4 µM (inactive) | > 69.3 µM (inactive) | 7.55 µM (inactive) | 18.5 µM (inactive) | 34.9 µM (inactive) | 
O=C(/C=C/c1ccc(Br)cc1)c1ccc(NCc2nc3ccccc3[nH]2)cc1 | 5.25 µM (inactive) | > 30.2 µM (inactive) | 3.95 µM | 4.65 µM (inactive) | 2.11 µM (inactive) | 10.9 µM (inactive) | 4.95 µM (inactive) | 3.41 µM (inactive) | 14.4 µM (inactive) | 3.37 µM (inactive) | 4.35 µM (inactive) | 4.61 µM (inactive) | 18.6 µM (inactive) | 4.4 µM (inactive) | 9.93 µM (inactive) | 4.34 µM (inactive) | 5.69 µM (inactive) | 3.81 µM (inactive) | 
O=C(CCc1ccccc1)NS(=O)(=O)c1ccccc1 | > 100 µM (inactive) | > 100 µM (inactive) |  | > 100 µM (inactive) | > 100 µM (inactive) | > 100 µM (inactive) | > 100 µM (inactive) | > 100 µM (inactive) | > 100 µM (inactive) | > 100 µM (inactive) | > 100 µM (inactive) | > 100 µM (inactive) | > 100 µM (inactive) |  | > 100 µM (inactive) | > 100 µM (inactive) | > 100 µM (inactive) | > 100 µM (inactive) | 
COc1ccc2nc3ccc(OC)cc3c(S(=O)(=O)Cc3ccc([N+](=O)[O-])cc3)c2c1 | 66.4 µM (inactive) | > 100 µM (inactive) | > 100 µM | 68.7 µM (inactive) | > 100 µM (inactive) | > 100 µM (inactive) | > 100 µM (inactive) | > 100 µM (inactive) | > 100 µM (inactive) | > 100 µM (inactive) | > 100 µM (inactive) | 61.5 µM (inactive) | > 100 µM (inactive) |  | > 100 µM (inactive) | 38.7 µM (inactive) | > 100 µM (inactive) | > 100 µM (inactive) | 61.7 µM (inactive)
